Among the data in the NIST ThermoML archive (doi:10.1021/je400630f) are viscosity and mass density values, retold here.

Numbers after ± are expanded uncertainties.

The first data set is described as follows: xn = mol fraction of the nth substance listed. The following applies: 283.15 K; 100 kPa; Liquid; Capillary tube (Ostwald / Ubbelohde) method; x1 = 1.
As usually defined, the viscosity is the internal friction of a fluid under shear. Regarding `CCO` [ethanol] + CCCCCCCCCCO, the viscosity was determined as 1.475 ± 0.031 mPa·s.

Take `CCO` [ethanol] + CCCCCCCCCO: the viscosity was 1.475 ± 0.031 mPa·s.

In the case of `CCO` [ethanol] + CCCCCCCCO, the viscosity was 1.475 ± 0.031 mPa·s.

On to `CCO` [ethanol] + CCCCCCCO, for which the viscosity was 1.475 ± 0.031 mPa·s.

As to `CCO` [ethanol] + CCCCCO, the viscosity turned out to be 1.475 ± 0.031 mPa·s.

For the compound `CCO` [ethanol] + CCCCO, the viscosity is on record as 1.475 ± 0.031 mPa·s.

The data set is the same for the next values; noted with them: 283.15 K; 100 kPa; Liquid; x1 = 1.
For orientation: mass density means mass per unit of volume. As for `CCO` [ethanol] + CCCCCCCCCCO, the mass density is 798 ± 1.3 kg/m3.

As to `CCO` [ethanol] + CCCCCCCCCO, the mass density is 798 ± 1.3 kg/m3.

`CCO` [ethanol] + CCCCCCCCO: the mass density came to 798 ± 1.3 kg/m3.

For `CCO` [ethanol] + CCCCCCCO, the mass density was 798 ± 1.3 kg/m3.

Regarding `CCO` [ethanol] + CCCCCO, the mass density came to 798 ± 1.3 kg/m3.

Consider `CCO` [ethanol] + CCCCO, for which the mass density is 798 ± 1.3 kg/m3.

Still in this data set, the particulars now being: 293.15 K; 100 kPa; Liquid; Capillary tube (Ostwald / Ubbelohde) method; x1 = 1.
For the compound `CCO` [ethanol] + CCCCCCCCCCO, the viscosity is 1.196 ± 0.025 mPa·s.

Regarding `CCO` [ethanol] + CCCCCCCCCO, the viscosity was determined as 1.196 ± 0.025 mPa·s.

On to `CCO` [ethanol] + CCCCCCCCO, for which the viscosity came out at 1.196 ± 0.025 mPa·s.

With `CCO` [ethanol] + CCCCCCCO, the viscosity was determined as 1.196 ± 0.025 mPa·s.

In the case of `CCO` [ethanol] + CCCCCO, the viscosity is 1.196 ± 0.025 mPa·s.

For the compound `CCO` [ethanol] + CCCCO, the viscosity is reported as 1.196 ± 0.025 mPa·s.

Staying with this data set, now noted: 293.15 K; 100 kPa; Liquid; x1 = 1.
On to `CCO` [ethanol] + CCCCCCCCCCO, for which the mass density is 789.5 ± 1.4 kg/m3.

For `CCO` [ethanol] + CCCCCCCCCO, the mass density came to 789.5 ± 1.4 kg/m3.

On to `CCO` [ethanol] + CCCCCCCCO, for which the mass density turned out to be 789.5 ± 1.4 kg/m3.

Consider `CCO` [ethanol] + CCCCCCCO, for which the mass density came out at 789.5 ± 1.4 kg/m3.

As for `CCO` [ethanol] + CCCCCO, the mass density is 789.5 ± 1.4 kg/m3.

For the compound `CCO` [ethanol] + CCCCO, the mass density is reported as 789.5 ± 1.4 kg/m3.

The data set is the same for the next values; noted with them: 298.15 K; 100 kPa; Liquid; Capillary tube (Ostwald / Ubbelohde) method; x1 = 1.
Take `CCO` [ethanol] + CCCCCCCCCCO: the viscosity was determined as 1.102 ± 0.023 mPa·s.

Take `CCO` [ethanol] + CCCCCCCCCO: the viscosity was 1.102 ± 0.023 mPa·s.

As to `CCO` [ethanol] + CCCCCCCCO, the viscosity is on record as 1.102 ± 0.023 mPa·s.

Consider `CCO` [ethanol] + CCCCCCCO, for which the viscosity is 1.102 ± 0.023 mPa·s.

On to `CCO` [ethanol] + CCCCCO, for which the viscosity was found to be 1.102 ± 0.023 mPa·s.

With `CCO` [ethanol] + CCCCO, the viscosity is on record as 1.102 ± 0.023 mPa·s.

The data set is the same for the next values; noted with them: 298.15 K; 100 kPa; Liquid; x1 = 1.
Turning to `CCO` [ethanol] + CCCCCCCCCCO, the mass density is on record as 785.2 ± 1.4 kg/m3.

On to `CCO` [ethanol] + CCCCCCCCCO, for which the mass density was 785.2 ± 1.4 kg/m3.

On to `CCO` [ethanol] + CCCCCCCCO, for which the mass density was 785.2 ± 1.4 kg/m3.

As for `CCO` [ethanol] + CCCCCCCO, the mass density is 785.2 ± 1.4 kg/m3.

On to `CCO` [ethanol] + CCCCCO, for which the mass density is recorded as 785.2 ± 1.4 kg/m3.

Regarding `CCO` [ethanol] + CCCCO, the mass density was 785.2 ± 1.4 kg/m3.

Still in this data set, the particulars now being: 303.15 K; 100 kPa; Liquid; Capillary tube (Ostwald / Ubbelohde) method; x1 = 1.
Turning to `CCO` [ethanol] + CCCCCCCCCCO, the viscosity stood at 0.996 ± 0.021 mPa·s.

`CCO` [ethanol] + CCCCCCCCCO: the viscosity is listed as 0.996 ± 0.021 mPa·s.

For `CCO` [ethanol] + CCCCCCCCO, the viscosity amounted to 0.994 ± 0.021 mPa·s.

`CCO` [ethanol] + CCCCCCCO: the viscosity amounted to 0.996 ± 0.021 mPa·s.

As to `CCO` [ethanol] + CCCCCO, the viscosity is recorded as 0.996 ± 0.021 mPa·s.

Take `CCO` [ethanol] + CCCCO: the viscosity is given as 0.996 ± 0.021 mPa·s.

Still in this data set, the particulars now being: 303.15 K; 100 kPa; Liquid; x1 = 1.
`CCO` [ethanol] + CCCCCCCCCCO: the mass density was 781.1 ± 1.4 kg/m3.

In the case of `CCO` [ethanol] + CCCCCCCCCO, the mass density turned out to be 781.1 ± 1.4 kg/m3.

Regarding `CCO` [ethanol] + CCCCCCCCO, the mass density turned out to be 781.1 ± 1.4 kg/m3.

Consider `CCO` [ethanol] + CCCCCCCO, for which the mass density is listed as 781.1 ± 1.4 kg/m3.

Turning to `CCO` [ethanol] + CCCCCO, the mass density was determined as 781.1 ± 1.4 kg/m3.

On to `CCO` [ethanol] + CCCCO, for which the mass density is 781.1 ± 1.4 kg/m3.

The same data set, now with this note: 313.15 K; 100 kPa; Liquid; Capillary tube (Ostwald / Ubbelohde) method; x1 = 1.
In the case of `CCO` [ethanol] + CCCCCCCCCCO, the viscosity is reported as 0.842 ± 0.018 mPa·s.

As for `CCO` [ethanol] + CCCCCCCCCO, the viscosity was determined as 0.842 ± 0.018 mPa·s.

`CCO` [ethanol] + CCCCCCCCO: the viscosity stood at 0.842 ± 0.018 mPa·s.

Take `CCO` [ethanol] + CCCCCCCO: the viscosity stood at 0.842 ± 0.018 mPa·s.

As to `CCO` [ethanol] + CCCCCO, the viscosity was determined as 0.842 ± 0.018 mPa·s.

`CCO` [ethanol] + CCCCO: the viscosity turned out to be 0.842 ± 0.018 mPa·s.

The same data set, now with this note: 313.15 K; 100 kPa; Liquid; x1 = 1.
On to `CCO` [ethanol] + CCCCCCCCCCO, for which the mass density is on record as 772.3 ± 1.4 kg/m3.

As to `CCO` [ethanol] + CCCCCCCCCO, the mass density came out at 772.3 ± 1.4 kg/m3.

As for `CCO` [ethanol] + CCCCCCCCO, the mass density amounted to 772.3 ± 1.4 kg/m3.

In the case of `CCO` [ethanol] + CCCCCCCO, the mass density was found to be 772.3 ± 1.4 kg/m3.

For the compound `CCO` [ethanol] + CCCCCO, the mass density came to 772.3 ± 1.4 kg/m3.

In the case of `CCO` [ethanol] + CCCCO, the mass density turned out to be 772.3 ± 1.4 kg/m3.

Assay in the next data set: not given
The following applies: 283.15 K; 100 kPa; Liquid.
As to `CCCCO` [butan-1-ol], the mass density is recorded as 817.3 ± 1.2 kg/m3.

Turning to `CCCCCCCCCCO` [decan-1-ol], the mass density is reported as 836.6 ± 1.2 kg/m3.

On to `CCO` [ethanol], for which the mass density was found to be 798 ± 1.3 kg/m3.

For `CCCCCCCO` [heptan-1-ol], the mass density came to 829.6 ± 1.3 kg/m3.

In the case of `CCCCCCCCCO` [nonan-1-ol], the mass density was determined as 835 ± 1.3 kg/m3.
